From PubChem BioAssay AID248 (DTP/NCI, 2004)
Values joined by “and” are separate entries in the source; they are usually repeats but may differ in a detail not shown here. Equal values may be shown once. Inconclusive results and toxic doses are left out.

System: L1210 leukemia ip in BDF1 mice, survival T/C
Test: NCI In Vivo Anticancer Drug Screen. Data for tumor model L1210 Leukemia (intraperitoneal) in B6D2F1 (BDF1) mice
Conditions: endpoint: mean survival time, higher = longer survival
Outline: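 Tumor was transplanted into mice, which were then dosed with test compound or vehicle alone. Survival was recorded for each group, and the treated figure was expressed relative to the control figure.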

[1] = dose: 100.0 mg/kg/injection, schedule: Q01DX001 (ip), vehicle: saline
[2] = dose: 200.0 mg/kg/injection, schedule: Q01DX001 (ip), vehicle: saline
[3] = dose: 400.0 mg/kg/injection, schedule: Q01DX001 (ip), vehicle: saline
[4] = dose: 100.0 mg/kg/injection, schedule: Q01DX001 (ip), vehicle: other
[5] = dose: 400.0 mg/kg/injection, schedule: Q01DX001 (ip), vehicle: other

CCCCCCCCCCCCSCCCN
T/C (dose: 12.5 mg/kg/injection, schedule: Q04DX003 (ip), vehicle: saline with Tween-80): 96 % of control
T/C (dose: 25.0 mg/kg/injection, schedule: Q04DX003 (ip), vehicle: saline with Tween-80): 93 % of control
T/C (dose: 50.0 mg/kg/injection, schedule: Q04DX003 (ip), vehicle: saline with Tween-80): 96 % of control

Nc1nc(F)nc2c1ncn2C1OC(CO)C(O)C1O (centres undefined)
T/C (dose: 0.75 mg/kg/injection, schedule: Q01DX Z (ip), vehicle: saline): 106 % of control
T/C (dose: 1.0 mg/kg/injection, schedule: Q01DX015 (ip), vehicle: saline): 104 % of control
T/C (dose: 1.5 mg/kg/injection, schedule: Q01DX Z (ip), vehicle: saline): 112 % of control
T/C (dose: 1.6 mg/kg/injection, schedule: Q01DX015 (ip), vehicle: saline): 98 % of control
T/C (dose: 2.4 mg/kg/injection, schedule: Q01DX015 (ip), vehicle: saline): 96 % of control
T/C (dose: 3.0 mg/kg/injection, schedule: Q01DX Z (ip), vehicle: saline): 104 % of control
T/C (dose: 3.6 mg/kg/injection, schedule: Q01DX015 (ip), vehicle: saline): 96 % of control
T/C (dose: 5.4 mg/kg/injection, schedule: Q01DX015 (ip), vehicle: saline): 87 % of control
T/C (dose: 6.0 mg/kg/injection, schedule: Q01DX Z (ip), vehicle: saline): 113 % of control
T/C (dose: 65.0 mg/kg/injection, schedule: Q03HX024 (ip), vehicle: saline with Tween-80): 205 % of control
T/C (dose: 65.0 mg/kg/injection, schedule: Q06HX012 (ip), vehicle: saline with Tween-80): 160 % of control
T/C (dose: 80.0 mg/kg/injection, schedule: Q03HX024 (ip), vehicle: saline with Tween-80): 291 % of control
T/C (dose: 80.0 mg/kg/injection, schedule: Q06HX012 (ip), vehicle: saline with Tween-80): 177 % of control
T/C (dose: 90.0 mg/kg/injection, schedule: Q03HX024 (ip), vehicle: saline with Tween-80): 276 % of control
T/C [1]: 105 % of control
T/C (dose: 100.0 mg/kg/injection, schedule: Q03HX024 (ip), vehicle: saline with Tween-80): 301 % of control and 357 % of control (2×)
T/C (dose: 100.0 mg/kg/injection, schedule: Q03HX024 (oral), vehicle: saline with Tween-80): 160 % of control
T/C (dose: 110.0 mg/kg/injection, schedule: Q03HX024 (ip), vehicle: saline with Tween-80): 157 % of control
T/C (dose: 125.0 mg/kg/injection, schedule: Q03HX024 (ip), vehicle: saline with Tween-80): 100 % of control
T/C (dose: 125.0 mg/kg/injection, schedule: Q06HX012 (ip), vehicle: saline with Tween-80): 163 % of control
T/C (dose: 150.0 mg/kg/injection, schedule: Q03HX024 (ip), vehicle: saline with Tween-80): 83 % of control
T/C (dose: 150.0 mg/kg/injection, schedule: Q03HX024 (oral), vehicle: saline with Tween-80): 166 % of control
T/C (dose: 150.0 mg/kg/injection, schedule: Q06HX012 (ip), vehicle: saline with Tween-80): 181 % of control and 326 % of control
T/C [2]: 107 % of control
T/C (dose: 200.0 mg/kg/injection, schedule: Q06HX012 (ip), vehicle: saline with Tween-80): 219 % of control
T/C (dose: 250.0 mg/kg/injection, schedule: Q06HX012 (ip), vehicle: saline with Tween-80): 122 % of control
T/C (dose: 300.0 mg/kg/injection, schedule: Q01DX009 (ip), vehicle: saline with Tween-80): 86 % of control
T/C (dose: 300.0 mg/kg/injection, schedule: Q12HX006 (ip), vehicle: saline with Tween-80): 204 % of control and 225 % of control
T/C (dose: 350.0 mg/kg/injection, schedule: Q12HX006 (ip), vehicle: saline with Tween-80): 205 % of control
T/C [3]: 122 % of control
T/C (dose: 400.0 mg/kg/injection, schedule: Q12HX006 (ip), vehicle: saline with Tween-80): 207 % of control and 288 % of control
T/C (dose: 450.0 mg/kg/injection, schedule: Q12HX006 (ip), vehicle: saline with Tween-80): 228 % of control
T/C (dose: 600.0 mg/kg/injection, schedule: Q04DX003 (ip), vehicle: saline with Tween-80): 186 % of control
T/C (dose: 750.0 mg/kg/injection, schedule: Q12HX006 (ip), vehicle: saline with Tween-80): 106 % of control
T/C (dose: 800.0 mg/kg/injection, schedule: Q04DX003 (ip), vehicle: saline with Tween-80): 200 % of control
T/C (dose: 1000.0 mg/kg/injection, schedule: Q04DX003 (ip), vehicle: saline with Tween-80): 205 % of control

CCN(CC)c1ccc(Cc2ccc(N(CC)CC)cc2Br)c(Br)c1
T/C (dose: 100.0 mg/kg/injection, schedule: Q01DX009 (ip), vehicle: Klucel (hydroxypropylcellulose) (HPC)): 100 % of control
T/C (dose: 100.0 mg/kg/injection, schedule: Q04DX003 (ip), vehicle: Klucel (hydroxypropylcellulose) (HPC)): 96 % of control
T/C (dose: 200.0 mg/kg/injection, schedule: Q01DX009 (ip), vehicle: Klucel (hydroxypropylcellulose) (HPC)): 105 % of control
T/C (dose: 200.0 mg/kg/injection, schedule: Q04DX003 (ip), vehicle: Klucel (hydroxypropylcellulose) (HPC)): 104 % of control
T/C (dose: 400.0 mg/kg/injection, schedule: Q01DX009 (ip), vehicle: Klucel (hydroxypropylcellulose) (HPC)): 107 % of control
T/C (dose: 400.0 mg/kg/injection, schedule: Q04DX003 (ip), vehicle: Klucel (hydroxypropylcellulose) (HPC)): 94 % of control

CC1(C(N)=O)CCC(C(=O)O)C1(C)C (centres undefined)
T/C (dose: 50.0 mg/kg/injection, schedule: Q01DX001 (ip), vehicle: carboxymethylcellulose (CMC)): 103 % of control
T/C (dose: 100.0 mg/kg/injection, schedule: Q01DX001 (ip), vehicle: carboxymethylcellulose (CMC)): 109 % of control
T/C (dose: 200.0 mg/kg/injection, schedule: Q01DX001 (ip), vehicle: carboxymethylcellulose (CMC)): 103 % of control
T/C (dose: 400.0 mg/kg/injection, schedule: Q01DX001 (ip), vehicle: carboxymethylcellulose (CMC)): 103 % of control

CC(=O)C(Sc1ccccc1[N+](=O)[O-])C(C)=O.[Cr]
T/C (dose: 50.0 mg/kg/injection, schedule: Q01DX001 (ip), vehicle: other): 94 % of control
T/C [4]: 88 % of control
T/C [5]: 88 % of control

O=C(OCCOc1ccc(Cl)cc1Cl)c1cc(I)cc(I)c1I
T/C (dose: 100.0 mg/kg/injection, schedule: Q04DX002 (ip), vehicle: Klucel (hydroxypropylcellulose) (HPC)): 111 % of control
T/C (dose: 200.0 mg/kg/injection, schedule: Q04DX002 (ip), vehicle: Klucel (hydroxypropylcellulose) (HPC)): 101 % of control
T/C (dose: 400.0 mg/kg/injection, schedule: Q04DX002 (ip), vehicle: Klucel (hydroxypropylcellulose) (HPC)): 104 % of control

O=S(=O)(CC(Cl)c1ccccc1)c1ccc(F)cc1 (centres undefined)
T/C [1]: 109 % of control
T/C (dose: 100.0 mg/kg/injection, schedule: Q01DX009 (ip), vehicle: saline): 91 % of control
T/C (dose: 100.0 mg/kg/injection, schedule: Q04DX003 (ip), vehicle: saline): 91 % of control
T/C [2]: 100 % of control
T/C (dose: 200.0 mg/kg/injection, schedule: Q01DX009 (ip), vehicle: saline): 110 % of control
T/C (dose: 200.0 mg/kg/injection, schedule: Q04DX003 (ip), vehicle: saline): 97 % of control
T/C [3]: 97 % of control
T/C (dose: 400.0 mg/kg/injection, schedule: Q01DX009 (ip), vehicle: saline): 99 % of control
T/C (dose: 400.0 mg/kg/injection, schedule: Q04DX003 (ip), vehicle: saline): 98 % of control

CC12CCC(OC3OC(CO)C(OC4OC(CO)C(O)C(O)C4O)C(O)C3O)CC1CCC1C2CCC2(C)C(C3=CC(=O)OC3)CCC12O (centres undefined)
T/C (dose: 10.0 mg/kg/injection, schedule: Q01DX009 (ip), vehicle: saline): 102 % of control
T/C (dose: 20.0 mg/kg/injection, schedule: Q01DX009 (ip), vehicle: saline): 116 % of control
T/C (dose: 40.0 mg/kg/injection, schedule: Q01DX009 (ip), vehicle: saline): 102 % of control

O=C1N=C2C=CC=CN2C(=O)C1Cc1ccccc1 (centres undefined)
T/C (dose: 100.0 mg/kg/injection, schedule: Q01DX009 (ip), vehicle: saline with Tween-80): 90 % of control
T/C (dose: 100.0 mg/kg/injection, schedule: Q04DX003 (ip), vehicle: saline with Tween-80): 98 % of control
T/C (dose: 200.0 mg/kg/injection, schedule: Q01DX009 (ip), vehicle: saline with Tween-80): 89 % of control
T/C (dose: 200.0 mg/kg/injection, schedule: Q04DX003 (ip), vehicle: saline with Tween-80): 94 % of control
T/C (dose: 400.0 mg/kg/injection, schedule: Q01DX009 (ip), vehicle: saline with Tween-80): 96 % of control
T/C (dose: 400.0 mg/kg/injection, schedule: Q04DX003 (ip), vehicle: saline with Tween-80): 99 % of control

COc1ccc(C2(C=O)CN(C)CN2)cc1 (centres undefined)
T/C [4]: 96 % of control
T/C (dose: 200.0 mg/kg/injection, schedule: Q01DX001 (ip), vehicle: other): 107 % of control
T/C [5]: 96 % of control

CC(=O)OC1CC2C(C)(C)C(=O)C3OC3C2(C)C2CCC3(C)C(=CC(=O)OC3c3ccoc3)C12C (centres undefined)
T/C (dose: 100.0 mg/kg/injection, schedule: Q01DX001 (sc), vehicle: steriod suspending solution): 101 % of control
T/C (dose: 200.0 mg/kg/injection, schedule: Q01DX001 (sc), vehicle: steriod suspending solution): 104 % of control
T/C (dose: 400.0 mg/kg/injection, schedule: Q01DX001 (sc), vehicle: steriod suspending solution): 103 % of control
